Assays:
sodium chloride taste = settings: concentrations that specifically modulate ENaC function; cited from earlier work
[1] = test system: perceived human salt intensity; assay: inventors' test of perceived human salt intensity; format: in vivo
Source text: Unlike other mammals, amiloride has been reported to only slightly reduce the intensity of sodium chloride taste, i.e., by about 15-20% when used at concentrations that specifically modulate ENaC function (Halpern, B. P. (1998) Neuroscience and Behavioral Reviews. 23: 5-47). […] Thus, additional non-ENaC genes are likely involved in human salt taste.

SMILES	reduction of the intensity of sodium chloride taste (sodium chloride taste)	effect on perceived human salt intensity ([1]; tested at 300-fold above IC50 for alpha beta gamma ENaC (10-fold over IC50 for delta beta gamma ENaC))	effect on perceived human salt intensity ([1]; tested at 3000-fold above IC50 for alpha beta gamma ENaC (100-fold over IC50 for delta beta gamma ENaC), levels printed for benzamil)
N=C(N)NC(=O)c1nc(Cl)c(N)nc1N [amiloride]	15-20%	did not elicit a significant effect	–
NC(=Nc1ccccc1)NC(=O)c1nc(Cl)c(N)nc1N [phenamil]	–	–	did not elicit a significant effect
